Laboratory results as given in US20220233512A1, “INHIBITING AN IMMUNE RESPONSE MEDIATED BY ONE OR MORE OF TLR2, RAGE, CCR5, CXCR4 AND CD4” (priority 2020, published 2022).

Target: T1, mu opiate receptor (MOR) (Rattus norvegicus, UniProt P33535)
T1 construct: from tissue; host or cells: striatum (membrane preparation)
Experiment: MOR agonist activity using [35S]GTPgS binding assay in striatal membranes
Type: biochemical
Design: MOR agonist activity (preliminary study): unit of the concentration uncertain
Details: for MOR agonist activity (preliminary study): average of two runs
Outline: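 Rat striatal membranes incubated 5 min at 30 °C in pH 7.5 HEPES buffer with 100 mM NaCl, 1 mM MgCl2 and 0.5 nM [35S]GTPgS, then 5 min with compound. Gαo-bound [35S]GTPgS isolated by immunoprecipitation and counted by liquid scintillation.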

[1] = 0.1 μM compound as agonist, Series C-2 table
[2] = 1 μM compound as agonist, Series C-2 table
[3] = 0.1 μM compound as agonist, Series C-1 table
[4] = 1 μM compound as agonist, Series C-1 table

T1 sequence (P33535 whole entry): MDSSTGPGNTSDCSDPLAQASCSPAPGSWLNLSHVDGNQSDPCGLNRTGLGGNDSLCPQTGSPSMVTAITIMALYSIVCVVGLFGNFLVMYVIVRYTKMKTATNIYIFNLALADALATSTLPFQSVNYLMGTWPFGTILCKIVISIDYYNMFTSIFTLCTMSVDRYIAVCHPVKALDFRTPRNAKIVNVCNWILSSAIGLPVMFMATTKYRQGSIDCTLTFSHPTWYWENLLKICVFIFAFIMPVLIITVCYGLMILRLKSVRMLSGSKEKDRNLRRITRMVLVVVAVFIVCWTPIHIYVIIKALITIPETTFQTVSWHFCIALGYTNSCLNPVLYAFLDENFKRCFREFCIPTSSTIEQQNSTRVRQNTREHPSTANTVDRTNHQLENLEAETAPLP

SMILES	MOR agonist activity ([35S]GTPgS binding to Gao) [1]	MOR agonist activity ([35S]GTPgS binding to Gao) (1 μM + BFNA, Series C-2 table)	MOR agonist activity ([35S]GTPgS binding to Gao) [2]	MOR agonist activity ([35S]GTPgS binding to Gao) [3]	MOR agonist activity ([35S]GTPgS binding to Gao) (1 μM + BFNA, Series C-1 table)	MOR agonist activity ([35S]GTPgS binding to Gao) [4]	further results
CCCCN1CCC2(CC1)OCCN2S(=O)(=O)c1ccc(C(C)=O)cc1 [Compound C0101M]	138.2%	174.8%	274.3%				
CCCCN1CCC2(CC1)OCCN2S(=O)(=O)c1ccc(OC)cc1 [Compound C0102M]	131.8%	150.4%	272.0%				
CN1CCC2(CC1)NC(=O)CN2Cc1ccccc1 [Compound C0104M]	188.2%	143.8%	238.9%				
CN1CCC2(CC1)OCCN2S(=O)(=O)c1ccc(S(C)(=O)=O)cc1 [Compound C0106M]	171.8%	117.2%	240.7%				
CC(=O)c1ccc(S(=O)(=O)N2CC(CN(C)C)OC23CCN(C)CC3)cc1 (stereo not drawn) [Compound C0108M]	205.6%	76.9%	258.5%				
O=C1CNC2(CCNCC2)N1Cc1ccccc1 [Compound C0114M]	114.0%	35.9%	144.3%				
O=C1CN(Cc2ccccc2)C2(CCNCC2)N1 [Compound C0115M]	177.2%	118.4%	226.8%				
CS(=O)(=O)c1ccc(S(=O)(=O)N2CCOC23CCNCC3)cc1 [Compound C0116M]	258.4%	152.0%	302.8%				
CC(=O)c1ccc(S(=O)(=O)N2CC(CN(C)C)OC23CCNCC3)cc1 (stereo not drawn) [Compound C0118M]	166.2%	79.2%	261.5%				
CC(=O)c1ccc(S(=O)(=O)N2C(Cc3c[nH]cn3)C(=O)NC23CCNCC3)cc1 (stereo not drawn) [Compound C0119M]	105.7%	35.1%	167.8%				
O=C1CNC2(CCN(CC3CC3)CC2)N1Cc1ccccc1 [Compound C0124M]	252.0%	61.4%	305.1%				
O=C1CN(Cc2ccccc2)C2(CCN(CC3CC3)CC2)N1 [Compound C0125M]	168.6%	159.7%	195.2%				
CS(=O)(=O)c1ccc(S(=O)(=O)N2CCOC23CCN(CC2CC2)CC3)cc1 [Compound C0126M]	181.8%	108.5%	265.3%				
CC(=O)c1ccc(S(=O)(=O)N2CC(CN(C)C)OC23CCN(CC2CC2)CC3)cc1 (stereo not drawn) [Compound C0128M]	197.8%	63.9%	286.0%				
COc1ccc(S(=O)(=O)N2CCOC23CCN(C(C)C)CC3)cc1 [Compound C0133M]	139.4%	72.4%	214.8%				
Cc1ccc(S(=O)(=O)N2CCOC23CCN(CC2CC2)CC3)cc1 [Compound C0134M]	158.5%	46.6%	207.3%				MOR agonist activity (preliminary study) (1 mM + bNFA): 53.2%; MOR agonist activity (preliminary study) (0.1 (unit uncertain) compound as agonist): 150.7%; MOR agonist activity (preliminary study) (1 (unit uncertain) compound as agonist): 224.0%

SMILES	MOR agonist activity ([35S]GTPgS binding to Gao) [1]	MOR agonist activity ([35S]GTPgS binding to Gao) (1 μM + BFNA, Series C-2 table)	MOR agonist activity ([35S]GTPgS binding to Gao) [2]	MOR agonist activity ([35S]GTPgS binding to Gao) [3]	MOR agonist activity ([35S]GTPgS binding to Gao) (1 μM + BFNA, Series C-1 table)	MOR agonist activity ([35S]GTPgS binding to Gao) [4]	further results
CCc1ccc(S(=O)(=O)N2CCOC23CCN(CC2CC2)CC3)cc1 [Compound C0135M]	161.3%	113.3%	310.1%				
O=C1CN(Cc2ccccc2)C2(CCN(S(=O)(=O)c3cc(Cl)cc(Cl)c3O)CC2)N1 [Compound C0138M]				126.9%	51.5%	183.9%	
O=C1CN(Cc2ccccc2)C2(CCN(S(=O)(=O)c3cc(Cl)c(O)c(Cl)c3)CC2)N1 [Compound C0139M]				156.1%	51.0%	206.6%	
O=S(=O)(c1ccc2ccccc2c1)N1CCC2(CC1)OCCN2S(=O)(=O)c1ccc2ccccc2c1 [Compound C0140M]				126.1%	83.0%	215.4%	
O=S(=O)(c1cccs1)N1CCC2(CC1)OCCN2S(=O)(=O)c1cccs1 [Compound C0141M]				161.5%	47.9%	213.9%	
COc1ccc(S(=O)(=O)N2CCC3(CC2)NCCC(=O)N3)cc1 [Compound C0142M]	143.7%	98.7%	192.5%				
O=S(=O)(c1cccc2cccnc12)N1CCC2(CC1)OCCN2S(=O)(=O)c1cccc2cccnc12 [Compound C0143M]	81.0%	86.5%	193.3%	81.0%	86.5%	193.3%	
COc1ccc(S(=O)(=O)N2CCC3(NCCO3)C3CCCCC32)cc1 (stereo not drawn) [Compound C0144M-2]	186.3%	125.9%	295.9%				
COc1ccc(S(=O)(=O)N2CCC3(OCCN3S(=O)(=O)c3ccc(OC)cc3)C3CCCCC32)cc1 (stereo not drawn) [Compound C0144M]				186.3%	125.9%	295.9%	
COc1ccc(S(=O)(=O)N2CCOC23CCCNC3)cc1 (stereo not drawn) [Compound C0145M-3]	193.0%	87.0%	289.2%				
COc1ccc(S(=O)(=O)N2CCCC3(C2)OCCN3S(=O)(=O)c2ccc(OC)cc2)cc1 (stereo not drawn) [Compound C0145M]				193.0%	87.0%	289.2%	
O=C1CNC2(CCN(S(=O)(=O)c3ccc(O)cc3)CC2)N1Cc1ccccc1 [Compound C0148M]				181.3%	87.6%	360.6%	% DAMGO + BFNA (relative to DAMGO + BFNA, Series C-1 table): 95.9%; % DAMGO (0.1 μM) (relative to DAMGO at 0.1 μM, Series C-1 table): 105.4%; % DAMGO (1 μM) (relative to DAMGO at 1 μM, Series C-1 table): 110.6%
O=S(=O)(c1ccccc1Oc1ccccc1)N1CCC2(CC1)NCCO2 [Compound C0149M-2]	209.8%	93.4%	406.7%				
O=S(=O)(c1ccc(Oc2ccccc2)cc1)N1CCC2(CC1)OCCN2S(=O)(=O)c1ccc(Oc2ccccc2)cc1 [Compound C0149M]				209.8%	93.4%	406.7%	
O=S(=O)(c1csc2ccccc12)N1CCC2(CC1)OCCN2S(=O)(=O)c1csc2ccccc12 [Compound C0150M]				167.1%	93.4%	423.1%	
COc1ccc(NC(=O)N2CCC3(CC2)NCCO3)cc1 [Compound C0151M-2]	346.8%	212.8%	397.6%				
